Laboratory results from patent publication US11472798B2 (Mission Therapeutics Limited, priority 2014, dated 2022).

Target: T1, UCHL1 (Homo sapiens, UniProt P09936)
T1 construct: made in house; host or cells: HEK293T
T1 sequence (P09936 1-223): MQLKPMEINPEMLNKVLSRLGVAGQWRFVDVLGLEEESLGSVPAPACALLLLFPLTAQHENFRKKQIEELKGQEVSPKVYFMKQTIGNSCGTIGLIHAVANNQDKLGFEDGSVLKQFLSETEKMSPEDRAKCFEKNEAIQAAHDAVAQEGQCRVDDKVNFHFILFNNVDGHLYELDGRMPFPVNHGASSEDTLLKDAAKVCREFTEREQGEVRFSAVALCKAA
Assay: UCHL1 biochemical IC50 assay (fluorescence polarisation)
Details: 30 min enzyme/compound pre-incubation at room temp, read after 2 hr incubation, read-out: Activity range (UCHL1 biochemical IC50 assay)
Description: Biological Activity of Compounds of the Invention Abbreviations: TAMRA carboxytetramethylrhodamine PCR polymerase chain reaction PBS phosphate buffered saline EDTA ethylenediaminetetraacetic acid Tris 2-amino-2-(hydroxymethyl)-1,3-propanediol NP-40 Nonidet P-40, octylphenoxypolyethoxyethanol BSA bovine serum albumin In Vitro UCHL1 Inhibition Assay Expression and Purification of UCHL1
The UCHL1 construct was PCR amplified and cloned into a pFLAG-CMV-6a vector (Sigma-Aldrich) with an N-terminal FLAG tag. HEK293T cells were transfected with FLAG-UCHL1 using TransIT-LT1 transfection reagent (Mirus) according to the manufacturer's instructions. Cells were harvested 40 hours after transfection. Cells were washed once with PBS and scraped in lysis buffer (50 mM Tris, pH 7.5, 150 mM NaCl, 3 mM EDTA, 0.5% NP40, 10% glycerol, 5 mM beta-mercaptoethanol, protease inhibitors (complete mini, Roche) and phosphatase inhibitors (PhosSTOP mini, Roche). Lysates were incubated for 30 min on ice and centrifuged at 1200 rpm for 10 min at 4° C. Soluble supernatant was added to FLAG affinity resin (EZview Rad ANTI-FLAG M2 affinity gel, Sigma-Aldrich) equilibrated in low salt buffer (20 mM Tris, pH 7.5, 150 mM NaCl, 0.5 mM EDTA, 5 mM beta-mercaptoethanol) and incubated at 4° C. for 3 hours rotating. The resin was spun at 2000 rpm for 2 min and the supernatant was removed. The resin was washed two times with low salt buffer and one time with high salt buffer (20 mM Tris, pH 7.5, 500 mM NaCl, 0.5 mM EDTA, 5 mM beta-mercaptoethanol, protease inhibitors (complete mini, Roche) and phosphatase inhibitors (PhosSTOP mini, Roche). To elute the bound UCHL1, elution buffer (10 mM Tris, pH 7.5, 150 mM NaCl, 0.5 mM FDTA, 10% glycerol, 0.5% NP40, 5 mM beta-mercaptoethanol, 0.15 mg/ml 3×FLAG peptide (Sigma-Aldrich)) was added to the resin and incubated at 4° C. for 2.5 hours rotating. The resin was centrifuged at 4000 rpm for 30 seconds, and the supernatant containing purified FLAG-UCHL1 was removed and stored at −80° C.
UCHL1 Biochemical IC50 Assay
Dilution plates were prepared at 21 times the final concentration (2100 μM for a final concentration of 100 µM) in 50% DMSO in a 96-well polypropylene V-bottom plate (Greiner #651201). A typical 8-point dilution series to be 100, 30, 10, 3, 1, 0.3, 0.1, 0.03 μM final. Reactions were performed in duplicate in black 384 well plates (small volume, Greiner 784076) in a final reaction volume of 21 μl. Either 1 μl of 50% DMSO or diluted compound was added to the plate. UCHL1 was diluted in reaction buffer (20 mM Tris, pH 7.5, 100 mM NaCl, 0.05% Tween 20, 0.5 mg/ml BSA, 5 mM—beta mercaptoethanol) to the equivalent of 0.05 μl/well and 10 μl of diluted UCHL1 was added to the compound. Enzyme and compound were incubated for 30 min at room temp. Reactions were initiated by the addition of 50 nM of TAMRA labelled peptide linked to ubiquitin via an iso-peptide bond as fluorescence polarisation substrate. Reactions were read immediately after addition of substrate and following a 2 hr incubation at room temperature. Readings were performed on a Pherastar Plus (BMG Labtech). λ Excitation 540 nm; k Emission 590 nm.

| IC50 [nM] | Structure (SMILES) |
| --- | --- |
| < 1000 | N#CN1CC[C@H](C(=O)Nc2ncc(-c3cccc(C(N)=O)c3)s2)C1 [Example 232, (S)-N-(5-(3-carbamoylphenyl)thiazol-2-yl)-1-cyanopyrrolidine-3-carboxamide] |
| < 1000 | N#Cc1ccc(-c2cnc(NC(=O)[C@H]3CCN(C#N)C3)s2)cc1OC(F)(F)F [Example 219, (S)-1-cyano-N-(5-(4-cyano-3-(trifluoromethoxy)phenyl)thiazol-2-yl)pyrrolidine-3-carboxamide] |
| 1000 to 10000 | CC(NS(=O)(=O)c1ccc(NC(=O)[C@H]2CCN(C#N)C2)nc1)c1ccccc1 (stereo partly drawn) [Example 207, (3S)-1-cyano-N-(5-(N-(1-phenylethyl)sulfamoyl)pyridin-2-yl)pyrrolidine-3-carboxamide] |
| < 1000 | Cc1noc(C)c1-c1ccc2cnc(NC(=O)[C@H]3CCN(C#N)C3)cc2c1 [Example 261, (S)-1-cyano-N-(6-(3,5-dimethylisoxazol-4-yl)isoquinolin-3-yl)pyrrolidine-3-carboxamide] |
| < 1000 | N#Cc1ccc(-n2cnc(NC(=O)[C@H]3CCN(C#N)C3)c2)cc1C1CC1 [Example 304, (S)-1-cyano-N-(1-(4-cyano-3-cyclopropylphenyl)-1H-imidazol-4-yl)pyrrolidine-3-carboxamide] |
| < 1000 | C#Cc1cccc(-c2cnc(NC(=O)[C@H]3CCN(C#N)C3)s2)c1 [Example 206, (S)-1-cyano-N-(5-(3-ethynylphenyl)thiazol-2-yl)pyrrolidine-3-carboxamide] |
| < 1000 | CNC(=O)c1cccc(-n2cnc(NC(=O)[C@H]3CCN(C#N)C3)c2)c1 [Example 156, (S)-1-cyano-N-(1-(3-(methylcarbamoyl)phenyl)-1H-imidazol-4-yl)pyrrolidine-3-carboxamide] |
| 1000 to 10000 | N#CN1CCC(C(=O)Nc2nc3ccccc3s2)C1 (centres unmarked) [Example 18, N-(benzo[d]thiazol-2-yl)-1-cyano-pyrrolidine-3-carboxamide] |
| 1000 to 10000 | C[C@@H]1CN(C#N)C[C@H]1C(=O)Nc1ncc(-c2ccccc2Cl)s1 (racemic) [Example 84, (±)-trans-N-(5-(2-chlorophenyl)thiazol-2-yl)-1-cyano-4-methylpyrrolidine-3-carboxamide] |
| < 1000 | N#CN1CC[C@H](C(=O)Nc2cn(-c3ccncc3)cn2)C1 [Example 182, (S)-1-cyano-N-(1-(pyridin-4-yl)-1H-imidazol-4-yl)pyrrolidine-3-carboxamide] |
| < 1000 | N#CN1CC[C@H](C(=O)Nc2ncc(C3CCOCC3)s2)C1 [Example 59, (S)-1-cyano-N-(5-(tetrahydro-2H-pyran-4-yl)thiazol-2-yl)pyrrolidine-3-carboxamide] |
| < 1000 | N#CN1CC[C@H](C(=O)Nc2cn(Cc3ccccc3)cn2)C1 [Example 146, (S)—N-(1-benzyl-1H-imidazol-4-yl)-1-cyanopyrrolidine-3-carboxamide] |
| 1000 to 10000 | N#CN1CCC(C(=O)Nc2nc3ccc(Br)cc3s2)C1 (centres unmarked) [Example 22, N-(6-bromobenzo[d]thiazol-2-yl)-1-cyano-pyrrolidine-3-carboxamide] |
| 1000 to 10000 | N#CN1CC[C@H](C(=O)Nc2ncc(N3CCc4ccccc4C3)s2)C1 [Example 98, (S)-1-cyano-N-(5-(3,4-dihydroisoquinolin-2(1H)-yl)thiazol-2-yl)pyrrolidine-3-carboxamide] |
| 1000 to 10000 | N#CN1CCC(C(=O)Nc2ncc(-c3cccc(N)c3)s2)C1 (centres unmarked) [Example 110, N-(5-(3-aminophenyl)thiazol-2-yl)-1-cyanopyrrolidine-3-carboxamide] |
| < 1000 | Cc1noc(C)c1-c1ccc2nc(NC(=O)[C@H]3CCN(C#N)C3)cn2c1 [Example 128, (S)-1-cyano-N-(6-(3,5-dimethylisoxazol-4-yl)imidazo[1,2-a]pyridin-2-yl)pyrrolidine-3-carboxamide] |

| IC50 [nM] | Structure (SMILES) |
| --- | --- |
| 1000 to 10000 | N#CN1CC2CC2(C(=O)Nc2ncc(-c3ccccc3)s2)C1 (centres unmarked) [Example 279, 3-cyano-N-(5-phenylthiazol-2-yl)-3-azabicyclo[3.1.0]hexane-1-carboxamide] |
| < 1000 | N#CN1CC[C@H](C(=O)Nc2cn(C3Cc4ccccc4C3)cn2)C1 [Example 164, (S)-1-cyano-N-(1-(2,3-dihydro-1H-inden-2-yl)-1H-imidazol-4-yl)pyrrolidine-3-carboxamide] |
| 1000 to 10000 | COC[C@H]1CCCN1Cc1cnc(NC(=O)[C@H]2CCN(C#N)C2)s1 [Example 143, (S)-1-cyano-N-(5-(((R)-2-(methoxymethyl)pyrrolidin-1-yl)methyl)thiazol-2-yl)pyrrolidine-3-carboxamide] |
| < 1000 | Cc1oncc1-c1cc(-c2ccnc(NC(=O)[C@H]3CCN(C#N)C3)c2)ccn1 [Example 297, (S)-1-cyano-N-(2′-(5-methylisoxazol-4-yl)-[4-4′-bipyridin]-2-yl)pyrrolidine-3-carboxamide] |
| < 1000 | Cc1noc(C)c1-c1ccc2nc(NC(=O)[C@H]3CCN(C#N)[C@H]3C)sc2c1 [Example 133, (2S,3S)-1-cyano-N-(6-(3,5-dimethylisoxazol-4-yl)benzo[d]thiazol-2-yl)-2-methyl-pyrrolidine-3-carboxamide] |
| < 1000 | CN(c1ccccc1)c1cnc(NC(=O)C2CCN(C#N)C2)s1 (centres unmarked) [Example 94, 1-cyano-N-(5-(methyl(phenyl)amino)thiazol-2-yl)pyrrolidine-3-carboxamide] |
| < 1000 | N#CN1CC[C@H](C(=O)Nc2cn(C3CCCN(C(=O)c4ccccc4)C3)cn2)C1 (stereo partly drawn) [Example 184, (3S)—N-(1-(1-benzoylpiperidin-3-yl)-1H-imidazol-4-yl)-1-cyanopyrrolidine-3-carboxamide] |
| 10000 to 30000 | N#CN1CC[C@H](C(=O)Nc2cccc(N3CCCC3)n2)C1 [Example 106, (S)-1-cyano-N-(6-(pyrrolidin-1-yl)pyridin-2-yl)pyrrolidine-3-carboxamide] |
| 10000 to 30000 | N#CN1CC[C@@H](C(=O)Nc2ccc(-c3ccccc3)cn2)C1 [Example 71, (R)-1-cyano-N-(5-phenylpyridin-2-yl)pyrrolidine-3-carboxamide] |
| < 1000 | CC(C)C(=O)N1CCc2nc(NC(=O)[C@H]3CCN(C#N)C3)sc2C1 [Example 190, (S)-1-cyano-N-(5-isobutyryl-4,5,6,7-tetrahydrothiazolo[5,4-c]pyridin-2-yl)pyrrolidine-3-carboxamide] |
| 1000 to 10000 | N#CN1CCC(C(=O)Nc2ccc(C3CCCCC3)cn2)C1 (centres unmarked) [Example 38, 1-cyano-N-(5-cyclohexyl-pyridin-2-yl)pyrrolidine-3-carboxamide] |
| 10000 to 30000 | N#CN1CCC(C(=O)Nc2ccccn2)C1 (centres unmarked) [Example 24, 1-cyano-N-(pyridin-2-yl)pyrrolidine-3-carboxamide] |
| 1000 to 10000 | C#Cc1ccc2cnc(NC(=O)[C@H]3CCN(C#N)[C@H]3C)cc2c1 [Example 264, (2S,3S)-1-cyano-N-(6-ethynylisoquinolin-3-yl)-2-methylpyrrolidine-3-carboxamide] |
| 1000 to 10000 | N#CN1CC[C@H](C(=O)Nc2nc3c(Br)cccc3s2)C1 [Example 48, (S)-N-(4-bromobenzo[d]thiazol-2-yl)-1-cyano-pyrrolidine-3-carboxamide] |
| < 1000 | N#CN1CCC(C(=O)Nc2ncc(-c3ccc(Cl)cc3)s2)C1 (centres unmarked) [Example 4, N-(5-(4-chlorophenyl)thiazol-2-yl)-1-cyano-pyrrodine-3-carboxamide] |
| 1000 to 10000 | N#CN1CCC(C(=O)Nc2nnc(-c3ccccc3)s2)C1 (centres unmarked) [Example 11, 1-cyano-N-(5-phenyl-1,3,4-thiadiazol-2-yl)pyrrolidine-3-carboxamide] |
